Assays:
[1] = test system: healthy subjects; settings: cited from earlier work
[2] = target: T1, 5-HT1a receptor (Homo sapiens, UniProt P08908); settings: functional tests; cited from earlier work
T1 sequence (P08908 1-422): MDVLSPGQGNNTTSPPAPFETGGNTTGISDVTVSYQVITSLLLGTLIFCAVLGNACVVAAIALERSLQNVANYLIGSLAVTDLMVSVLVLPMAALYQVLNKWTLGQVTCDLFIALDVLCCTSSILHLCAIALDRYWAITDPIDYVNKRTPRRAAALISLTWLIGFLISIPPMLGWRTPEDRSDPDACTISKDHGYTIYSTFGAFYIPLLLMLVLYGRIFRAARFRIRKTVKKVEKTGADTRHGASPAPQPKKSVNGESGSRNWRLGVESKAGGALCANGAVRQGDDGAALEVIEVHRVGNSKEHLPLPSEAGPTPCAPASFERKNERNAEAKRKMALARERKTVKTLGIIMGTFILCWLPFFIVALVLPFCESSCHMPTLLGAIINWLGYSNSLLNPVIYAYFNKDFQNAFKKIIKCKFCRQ

[3] = test system: Young, healthy, male Wistar Han rats; experiment: S-Pindolol in young healthy rats, 16 days: body weight, lean mass, organ weights; assay type: in vivo, rat; settings: for Gastrocnemius organ weight at the end of the study: gavage once daily, placebo 1234 ± 30; for Soleus organ weight at the end of the study / EDL organ weight at the end of the study / Tibialis organ weight at the end of the study: gavage; for Soleus organ weight at the end of the study: placebo 97 ± 2; for EDL organ weight at the end of the study: placebo 104 ± 3; for Tibialis organ weight at the end of the study: placebo 447 ± 9; for EDL percent increase in weight / Soleus percent increase in weight: versus placebo
Protocol: Young, healthy, male Wistar Han rats (201.8±2.4 g) were housed in groups of two to three per cage under standard conditions. Animals were randomized to receive either 0.3 mg S-Pindolol/kg/d (n=5), 3 mg S-Pindolol/kg/d (n=5) or placebo (n=16) once daily per gavage for 16 days. Body composition (lean mass) of the animals was analyzed using the EchoMRI-700 system (Echo Medical Systems, Houston, Tex., USA) before treatment and at the end of the study. Body weight was recorded before treatment and at the end of study. Organ weights were recorded at the end of study.

[4] = test system: Old, healthy, male Wistar Han rats; experiment: S-Pindolol in old (19 month) rats, 28 days: body weight, lean mass, organ weights; assay type: in vivo, rat; settings: 3 mg/kg/d
Protocol: Old, healthy, male Wistar Han rats (age 19 month, at the start of the experiment) were housed in groups of two to three per cage under standard laboratory conditions. Animals were randomized to receive either 3 mg/kg/d S-Pindolol/kg/d (n=8), or placebo (n=14) once daily per gavage for 28 days. Body composition (lean mass) of the animals was analyzed using the EchoMRI-700 system (Echo Medical Systems, Houston, Tex., USA) before treatment, once per week during the study and at the end of the study. Body weight was recorded before treatment, once per week during the study and at the end of study. Organ weights were recorded at the end of study. One tibialis muscle per animals was dried at 60° C. for 48 h.

For `CC(C)NCC(O)COc1cccc2[nH]ccc12` (racemic) [racemic pindolol], the “Effect on diastolic blood pressure” value ([1]; healthy subjects, similar dose) is listed as “reducing”.
In the case of `CC(C)NC[C@@H](O)COc1cccc2ccccc12` [(R)-propranolol], the “Block of the suppressant effects of 5-HT1a agonists on dorsal raphe neuronal firing” value [2] is given as “not”.
For `CC(C)NC[C@H](O)COc1cccc2ccccc12` [(S)-propranolol, (S)-1-isopropylamino-3-(1-naphthyloxy)-2-propanol], the “Block of the suppressant effects of 5-HT1a agonists on dorsal raphe neuronal firing” value [2] is given as “blocked”.
For `CC(C)NC[C@H](O)COc1cccc2[nH]ccc12` [S-Pindolol, S-(−)-1-(1H-indol-4-yloxy)-3-(1-methylethylamino)propan-2-ol], the “Alteration in blood pressure” value ([1]; in vivo) is given as “no alteration”, the “Gastrocnemius organ weight at the end of the study” value (shortened to “Gastrocnemius organ weight”) ([3]; 0.3 mg/kg/d) is given as 1420 ± 35 mg and the “Soleus organ weight at the end of the study” value (“Soleus organ weight at the end” below) ([3]; 0.3 mg/kg/d) is given as 107 ± 2 mg. For the same compound, the “EDL organ weight at the end of the study” value ([3]; 0.3 mg/kg/d) was 124 ± 6 mg, the “Tibialis organ weight at the end of the study” value (“Tibialis organ weight” below) ([3]; 0.3 mg/kg/d) was 526 ± 15 mg and the “EDL percent increase in weight” value ([3]; 0.3 mg/kg/d) was “+19.2%”. The “Soleus percent increase in weight” value ([3]; 0.3 mg/kg/d) was “+10.3%”, the “Gastrocnemius organ weight” value ([3]; 3 mg/kg/d) was 1492 ± 37 mg and the “Soleus organ weight at the end” value ([3]; 3 mg/kg/d) was 103 ± 3 mg. The “EDL organ weight at the end of the study” value ([3]; 3 mg/kg/d) was 126 ± 4 mg, the “Tibialis organ weight” value ([3]; 3 mg/kg/d) was 535 ± 22 mg and the “EDL percent increase in weight” value ([3]; 3 mg/kg/d) was “+21.1%”. The “Soleus percent increase in weight” value ([3]; 3 mg/kg/d) was “+6.2%”, the “Lean body mass (i.e. muscle mass)” value ([3]; 0.3 and 3 mg/kg/d, EchoMRI, FIG. 2) was “dose dependently increased” and the “Body weight (weight gain during treatment)” value ([3]; high dose (3 mg/kg/d), FIG. 1, p=0.0002 vs placebo) was “significantly increased”. The “Tibialis organ weight” value ([4]; gavage, old rats, placebo 827 ± 34) was 1034 ± 46 mg, the “Gastrocnemius organ weight” value ([4]; gavage, old rats, placebo 2283 ± 78) was 2914 ± 133 mg and the “Lean body mass (i.e. muscle mass)” value ([4]; old rats, EchoMRI, FIGS. 7, 8) was “increased”. For the same compound, the “Body weight (change during the treatment period)” value ([4]; old rats, FIGS. 4, 5) was “significantly increased”, the Tibialis dry mass ([4]; old rats, dried at 60° C. for 48 h, placebo 227 ± 9) was 276 ± 12 mg and the Tibialis dry mass ([4]; old rats, placebo 27.89 ± 0.78) was 27.12 ± 0.46%. The Tibialis water ([4]; old rats, placebo 72.1 ± 0.78) was 72.88 ± 0.46%, the “Soleus organ weight at the end” value ([4]; old rats, placebo 181 ± 11) was 173 ± 9 mg and the “EDL organ weight at the end of the study” value ([4]; old rats, placebo 197 ± 9) was 236 ± 5 mg. The “Lean mass increase compared to baseline” value ([4]; senile rats, placebo lost 1.5%) was 12.7%.
